Test [1] concerns the target T1, Human full-length ERβ (Homo sapiens, UniProt Q92731).
T1 construct: expression vector encoding human full-length ERα or ERβ; expressed in transfected cells; host or cells: HEK293, transiently transfected
The test can be described thus: ERβ cell-based luciferase reporter assay, agonist mode, transiently transfected HEK293 cells. The method, then: (§1) The selectivity and potency of the various compounds was carried out via in vitro testing in ERα and ERβ cell-based reporter assays. The activity of the selected compounds was determined in the cell-based reporter assays in HEK293 cells.
(§2) The HEK293 cells were propagated in a monolayer in phenol red-free DMEM supplemented with 10% fetal bovine serum, 2 mM Glutamax and penicillin/streptomycin (Thermo Fisher Scientific, MA, USA) and incubated in a 5% CO2 humidified atmosphere at 37° C. Right before transfection, the growth medium was changed to phenol red-free DMEM supplemented with 4% HyClone Fetal Bovine Serum, Charcoal/Dextran Treated (GE Healthcare Life Sciences, USA) and 2 mM Glutamax (starvation medium). The cells were transfected with the expression vector encoding human full-length ERα or ERβ and with the reporter vector containing 3 repeats of estrogen responsive elements (ERE) followed by the minimal thymidine kinase promoter from the herpes simplex virus in the pGL4 vector (Promega, USA). Luciferase served as a reporter gene. The transfection was carried out in 10 cm dishes (Nunc) in the starvation medium. After 24 hours, the cells were trypsinized, counted and seeded to cell culture treated, white, solid 1536-well plates (Corning Inc., NY, USA) at 1500 cells/well in 4 μl of total media volume. The compounds to be tested were diluted in DMSO and transferred to the cells using an acoustic dispenser Echo 520 (Labcyte). The compounds were tested at least at 12 different concentration points in the range from 10 μM to 100 pM, in triplicates. Luciferase activity was determined after 24 hours of incubation with compounds with Britelite plus luciferase reporter gene assay reagent (Perkin Elmer, USA), according to the manufacturer protocol. The luciferase signal was measured on an Envison multimode plate reader (Perkin Elmer, USA). Data were collected and processed using an in-house built LIMS system ScreenX and GraphPad Prism software. EC50 values were calculated using a regression function (dose response, variable slope).
In general terms: Reporter assays use an easily measured gene product as a stand-in for the process of interest.

Test [2] addresses T2, Human full-length ERα (Homo sapiens, UniProt P03372).
T2 construct: expression vector encoding human full-length ERα or ERβ; expressed in transfected cells; host or cells: HEK293, transiently transfected
T2 sequence (P03372 1-595): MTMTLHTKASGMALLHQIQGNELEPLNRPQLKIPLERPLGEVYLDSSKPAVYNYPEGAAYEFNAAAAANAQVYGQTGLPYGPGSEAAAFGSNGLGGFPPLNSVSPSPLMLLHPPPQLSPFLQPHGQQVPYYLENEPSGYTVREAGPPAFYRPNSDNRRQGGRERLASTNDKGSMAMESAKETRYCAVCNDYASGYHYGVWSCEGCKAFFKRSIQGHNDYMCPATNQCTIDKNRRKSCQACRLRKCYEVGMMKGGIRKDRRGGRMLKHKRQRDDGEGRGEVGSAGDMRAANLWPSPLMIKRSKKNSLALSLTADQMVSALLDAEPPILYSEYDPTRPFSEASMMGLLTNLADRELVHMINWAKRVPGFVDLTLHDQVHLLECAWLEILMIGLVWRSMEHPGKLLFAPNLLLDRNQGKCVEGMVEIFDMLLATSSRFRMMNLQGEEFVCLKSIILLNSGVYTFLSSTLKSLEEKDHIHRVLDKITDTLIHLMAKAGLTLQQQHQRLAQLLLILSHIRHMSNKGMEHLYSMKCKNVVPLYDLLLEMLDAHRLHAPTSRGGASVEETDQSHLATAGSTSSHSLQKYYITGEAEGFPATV
The test can be described thus: ERα cell-based luciferase reporter assay, agonist mode, transiently transfected HEK293 cells. The note with it: 24 h; for EC50: low = activity detected but too low for exact value. The method, then:
as §1, §2

In test [3] the target is T3, Human full-length AR (Homo sapiens, UniProt P10275).
T3 sequence (P10275 1-920): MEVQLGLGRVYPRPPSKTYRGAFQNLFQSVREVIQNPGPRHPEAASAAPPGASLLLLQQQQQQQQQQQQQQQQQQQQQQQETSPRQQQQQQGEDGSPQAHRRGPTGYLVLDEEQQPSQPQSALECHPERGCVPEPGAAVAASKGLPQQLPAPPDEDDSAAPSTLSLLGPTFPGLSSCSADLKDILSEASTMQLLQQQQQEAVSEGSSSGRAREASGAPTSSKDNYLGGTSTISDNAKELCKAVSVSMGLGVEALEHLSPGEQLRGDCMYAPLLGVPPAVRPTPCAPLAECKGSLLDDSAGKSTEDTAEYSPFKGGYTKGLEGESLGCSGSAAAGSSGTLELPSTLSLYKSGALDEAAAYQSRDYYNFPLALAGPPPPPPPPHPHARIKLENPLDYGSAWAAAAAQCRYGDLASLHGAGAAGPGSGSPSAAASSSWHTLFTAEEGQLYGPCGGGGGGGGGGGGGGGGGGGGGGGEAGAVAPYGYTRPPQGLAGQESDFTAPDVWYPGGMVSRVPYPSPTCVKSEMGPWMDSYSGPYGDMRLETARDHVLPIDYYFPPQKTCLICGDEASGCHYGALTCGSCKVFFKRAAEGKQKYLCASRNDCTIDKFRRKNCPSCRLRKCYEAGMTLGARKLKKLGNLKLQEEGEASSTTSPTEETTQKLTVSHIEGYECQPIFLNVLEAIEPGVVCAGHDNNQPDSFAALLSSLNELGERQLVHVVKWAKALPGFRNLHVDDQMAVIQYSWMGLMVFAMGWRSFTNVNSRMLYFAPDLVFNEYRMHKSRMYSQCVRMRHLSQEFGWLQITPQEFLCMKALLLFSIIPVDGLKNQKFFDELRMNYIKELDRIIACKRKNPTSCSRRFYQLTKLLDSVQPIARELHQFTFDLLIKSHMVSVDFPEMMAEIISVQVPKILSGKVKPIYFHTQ
The test is described as follows: AR cell-based luciferase reporter assay, agonist and antagonist mode, stable U2OS reporter cells. The note with it: agonist mode and antagonist mode (2 nM dihydrotestosterone), 100 μM to 100 pM, 24 hours.

The target in test [4] is T4, Human full-length GR (Homo sapiens, UniProt P04150).
T4 sequence (P04150 1-777): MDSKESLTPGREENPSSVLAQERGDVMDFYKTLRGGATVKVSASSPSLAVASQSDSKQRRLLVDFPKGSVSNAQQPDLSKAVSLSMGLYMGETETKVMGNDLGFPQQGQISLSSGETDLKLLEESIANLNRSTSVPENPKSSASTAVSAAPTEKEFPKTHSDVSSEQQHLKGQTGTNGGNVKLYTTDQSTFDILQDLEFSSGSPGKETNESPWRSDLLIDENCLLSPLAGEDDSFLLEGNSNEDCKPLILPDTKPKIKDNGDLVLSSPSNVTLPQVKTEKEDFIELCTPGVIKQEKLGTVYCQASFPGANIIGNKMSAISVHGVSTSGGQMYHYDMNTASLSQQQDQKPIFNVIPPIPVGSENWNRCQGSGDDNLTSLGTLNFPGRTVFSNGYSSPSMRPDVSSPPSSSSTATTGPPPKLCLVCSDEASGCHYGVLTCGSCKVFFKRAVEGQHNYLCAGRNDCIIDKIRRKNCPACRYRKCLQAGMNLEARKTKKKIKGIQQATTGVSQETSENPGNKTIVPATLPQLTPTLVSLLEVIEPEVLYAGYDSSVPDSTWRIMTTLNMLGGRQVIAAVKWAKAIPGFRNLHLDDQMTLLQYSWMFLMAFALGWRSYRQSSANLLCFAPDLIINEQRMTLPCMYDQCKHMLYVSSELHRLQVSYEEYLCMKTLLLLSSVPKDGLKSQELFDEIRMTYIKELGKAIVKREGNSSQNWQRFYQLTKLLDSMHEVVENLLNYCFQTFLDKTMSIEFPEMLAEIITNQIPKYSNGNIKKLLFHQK
The test can be described thus: GR cell-based luciferase reporter assay, agonist and antagonist mode, stable U2OS reporter cells. To be noted: agonist mode and antagonist mode (10 nM dexamethasone), 100 μM to 100 pM, 24 hours.

Test [5] relates to HEK293 cells. The test is described as follows: HEK293 viability assay (ATPlite 1step). To be noted: non-transfected HEK293, 24 h, ATP level; for HEK293 viability IC50 (μM): Low = activity detected but too low for exact value. Type of test: cell-based, human. On the procedure:
The non-transfected HEK293 cells were seeded to the 384-well plates at 5000 cell/well, compounds were added and the timing of all subsequent steps was exactly the same as in the reporter assays. […] After 24 h of compound incubation with cells, the viability of cells was measured by determining the ATP level in the samples using luciferase cell viability assay, ATPlite 1step (Perkin Elmer, USA).
Background: Cellular ATP, detected with luciferase, serves as a proxy for viable cell number.

[6] abbreviates: Trial 2 (believed more reliable).

Here are results for four molecules from US11771712B2, “Carborane compounds and methods of use thereof” (OHIO STATE INNOVATION FOUNDATION, priority 2015, dated 2023).

Where two headings read alike, the source gives them in different places.

T1 sequence (Q92731 whole entry): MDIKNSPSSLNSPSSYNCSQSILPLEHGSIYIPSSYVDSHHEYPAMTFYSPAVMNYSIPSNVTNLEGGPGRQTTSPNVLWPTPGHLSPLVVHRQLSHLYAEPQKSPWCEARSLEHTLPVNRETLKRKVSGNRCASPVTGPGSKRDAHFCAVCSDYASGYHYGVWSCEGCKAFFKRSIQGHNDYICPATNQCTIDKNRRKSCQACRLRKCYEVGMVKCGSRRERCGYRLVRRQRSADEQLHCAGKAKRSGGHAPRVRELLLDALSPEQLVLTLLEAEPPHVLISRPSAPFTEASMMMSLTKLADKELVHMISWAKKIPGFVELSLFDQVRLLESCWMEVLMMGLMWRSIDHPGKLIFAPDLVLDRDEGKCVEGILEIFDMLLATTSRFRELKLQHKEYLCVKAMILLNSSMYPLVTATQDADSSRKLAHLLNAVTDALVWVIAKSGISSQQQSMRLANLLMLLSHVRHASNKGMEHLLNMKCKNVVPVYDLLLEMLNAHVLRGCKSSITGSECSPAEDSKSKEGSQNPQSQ

For the molecule `CCCc1c(-c2ccc(O)cc2)nn(-c2ccc(O)cc2)c1-c1ccc(O)cc1` [PPT, Propyl pyrazole triol], the “ERβ EC50 (nM)” value in test [1] (24 h, low = activity detected but too low for exact value) is “low”. For the same molecule, the “ERβ Log(EC50) (M)” value in test [1] (log10 of EC50, negative values, 24 h, low = activity detected but too low for exact value) is listed as “low”. Also, the “ERα Efficacy (%)” value in test [2] came out at 101%. Further, the half-maximal effective concentration (EC50) (usually the concentration at which the effect is half-maximal) in test [2] (read-out: ERα EC50) was 3.3 nM; in test [2] (log10 of EC50, negative values, read-out: ERα Log(EC50) (converted)) it was 3.31 nM.
For `N#CC(Cc1ccc(O)cc1)c1ccc(O)cc1` (centres unmarked) [DPN, Diarylpropionitrile], the “agonistic or antagonistic activities on AR” value in test [3] is “no agonistic or antagonistic activities”. Moreover, in test [4], the “agonistic or antagonistic activities on GR” value is reported as “no agonistic or antagonistic activities”. Also, in test [5], the “HEK293 viability IC50 (μM)” value is reported as “Low”.
Take `C[C@]12CC[C@@H]3c4ccc(O)cc4CC[C@H]3[C@@H]1CC[C@@H]2O` [Compound E2, Estradiol]: the “agonistic or antagonistic activities on GR” value in test [4] was “no agonistic or antagonistic activities”. The “HEK293 viability IC50 (μM)” value in test [5] is recorded as “Low”.
“1-(4-hydoxyphenyl)-12-(1-hydroxyheptyl)-1,12-dicarba-closo-dodecaborane [Compound 06]”: the “agonistic or antagonistic activities on GR” value in test [4] is recorded as “no agonistic or antagonistic activities”. For the same molecule, the “ERβ Efficacy (%)” value in test [1] (Trial 1) stood at 100%; in test [1] (setting [6]), 103%. Further, the “ERβ Log(EC50) (M)” value in test [1] (Trial 1, log10 of EC50) is listed as −7.71 M; in test [1] (Trial 2 (believed more reliable), log10 of EC50) it was −7.76 M. For the same molecule, the 50% effective concentration (EC50) in test [1] (Trial 1, read-out: ERβ EC50) turned out to be 19 nM; in test [1] (Trial 2 (believed more reliable), read-out: ERβ EC50), 17 nM; in test [1] (differs from Table 5, luciferase reporter assay in HEK cells, read-out: EC50 at ERβ), 5 nM. Moreover, the IC50 (commonly the concentration needed to halve the response being measured) is 18000 nM in test [5] (Trial 1) and 17000 nM in test [5] (setting [6]).
